These results are taken from ChEMBL document CHEMBL5236614, “Discovery of Potent and Selective Dual Leucine Zipper Kinase/Leucine Zipper-Bearing Kinase Inhibitors with Neuroprotective Properties in In Vitro and In Vivo Models of Amyotrophic Lateral Sclerosis” (J Med Chem, 2022).

A short description of this data set: Microsomal stability in human liver microsomes assessed as intrinsic clearance. Type of data set: ADME, Microsome. The following applies: read-out: CLH. In general terms: Liver microsomes are vesicles of endoplasmic reticulum, rich in cytochrome P450 enzymes.

With `Nc1ncc(-c2cc(C3CC3)cc(N3C[C@@H]4C[C@H]3CO4)n2)nc1OC(F)F`, the CLint scaled stood at 15.9 mL/min/kg.

On to `Nc1ncc(-c2cc(C3CC3)nc(N3C[C@@H]4C[C@H]3CO4)c2)nc1OC(F)F`, for which the CLint scaled was found to be 15.8 mL/min/kg.
